Laboratory results published in the NIST ThermoML archive (doi:10.1021/je100300s).

Legend:
[1] = xn = mol fraction of the nth substance listed; conditions: 101 kPa, Liquid, x2 = 0
[2] = refractive index (Na D-line) (dimensionless); xn = mol fraction of the nth substance listed; conditions: 101 kPa, Liquid, Standard Abbe refractometry, x2 = 0
[3] = refractive index (Na D-line) (dimensionless); conditions: 101.33 kPa, Liquid, Standard Abbe refractometry
[4] = 101 kPa, Liquid

O [water] + CC(O)CN
Conditions | mass density, [1] [kg/m3] | refractive index, [2] | viscosity, [1] [mPa·s]
293.15 K | – | 1.33298 | –
298.15 K | – | 1.33249 | 0.882
303.15 K | – | 1.33193 | 0.804
308.15 K | – | 1.33136 | –
313.15 K | – | 1.33067 | 0.658
318.15 K | – | 1.3299 | –
323.15 K | 988.03 | 1.32906 | 0.551
328.15 K | – | 1.32818 | –
333.15 K | 983.19 | 1.32726 | 0.47
343.15 K | 977.75 | – | 0.407

CC(O)CN (centres undefined) [1-amino-2-propanol]
Conditions | mass density, [4] [kg/m3] | refractive index, [3] | viscosity, [4] [mPa·s]
293.15 K | – | 1.448 | –
298.15 K | 956.51 | 1.44609 | 26.68
303.15 K | 952.52 | 1.44409 | 20.31
308.15 K | – | 1.44211 | –
313.15 K | 944.42 | 1.44009 | 12.51
318.15 K | – | 1.43817 | –
323.15 K | 936.19 | 1.43631 | 7.543
328.15 K | – | 1.43405 | –
333.15 K | 927.84 | 1.43208 | 5.22
343.15 K | 919.37 | – | 3.77
